Columns and labels:
[1] = Tubis et al. 1960; cited from earlier work
[2] = tested on: rat Cerebellar Granular Cells (CGC); assay: Cell viability (MTT) of CGC exposed to IAPP 20-29 monomer or aggregated; format: cell-based
Experimental: The solutions fragment of IAPP 20-29 (MM 1029 Da) are prepared in PBS buffer (100 mM, pH 7.4; NaCl 100 mM). Monomeric peptide concentration was 5.8 mM and the aggregation peptide was 32.6 μM in DMSO. Protein concentration is calculated using the calibration curve.
Chaperonin: solutions of chaperonin B and D (25 μM), selected as non-limiting examples of Formula I, are prepared in 1.2 mL of DMSO and dilute with the buffer to obtain a final volume of […]. Curcumin (5.5 mM) used as reference compound was prepared in ethanol. (Yang, F. et al. in J. Biol Chem 2005, 280, 5892-5901). […]
In particular, in this invention, the viability of CGC cell cultures was assessed with the 20-29 fragment of IAPP, in its monomeric and aggregated form or with the mixtures of protein:chaperonin at different molar ratios. Briefly, in all samples of CGC, half of the volume of medium is removed to add, independently, the quantities of tested protein or mixtures of peptide:chaperonin with different molar ratios (1:0.3 or 1:1). […]
In FIG. 12, the results of the assessment of cell viability was observed by MTT assay, which were analyzed by the one-way ANOVA statistical test, followed by a posteriori LSD test (LSD for its acronym in English Least Significant Difference).

SMILES	Fraction able to cross the blood brain barrier (BBB) [1]	CGC viability with IAPP monomer plus reference compound versus monomer alone ([2]; IAPP 20-29 monomer, 20 hours, p>0.05)	CGC viability with aggregated IAPP 20-29 plus compound versus aggregated fragment alone ([2]; aggregated form of IAPP 20-29, 20 hours)
Nc1c(/N=N/c2ccc(-c3ccc(/N=N/c4cc(S(=O)(=O)O)c5ccccc5c4N)cc3)cc2)cc(S(=O)(=O)O)c2ccccc12 [CR, Congo Red]	0.03%		
COc1cc(/C=C/C(=O)CC(=O)/C=C/c2ccc(O)c(OC)c2)ccc1O [curcumin]		no significant differences	marked cytoprotective effect

From patent US9763900B2, “Chemical chaperonins as novel molecular modulators of beta protein aggregation present in conformational diseases” (Centro de Neurociencias de Cuba (NEURONIC), priority 2013, dated 2017)
